Reference: US20080045504A1, “Benzonitrile Derivatives to Treat Musculoskeletal Frailty” (PFIZER PRODUCTS INC., priority 2004, published 2008)
Marks after values point to notes of the source that are not given here.

System: aged ovariectomized (OVX) female rat
Assay: Effect on body weight, body composition and bone density in the aged ovariectomized female rat
Type: in vivo, Sprague-Dawley rat
Conditions: OVX rats
Protocol: Effect of Selective Androgen Receptor Modulator on Body Weight. Body Composition and Bone Density in the Aged Intact and Ovariectomized Female Rat The purpose of this study is to test the effects of test compound in aged intact or ovariectomized (OVX) female rat model.
Sprague-Dawley female rats were sham-operated or OVX at 18 months of age, while a group of rats was necropsied at day 0 to serve as baseline controls. One day post-surgery, the rats were treated with either vehicle or test compound. The vehicle or test compound was administered twice a week (Tuesday and Friday) by subcutaneous injection (s.c.), with the test compound being administered at an average dose of 10 milligrams per kilogram of body weight per day (10 mg/kg/day).
All rats were given s.c. injection of 10 mg/kg of calcein (Sigma, St. Louis, Mo.) for fluorescent bone label 2 and 12 days before necropsy. On the day of necropsy, all rats under ketamine/xylazine anesthesia were weighed and underwent dual-energy X-ray absorptiometry (DXA, QDR-4500/W, Hologic Inc., Waltham, Mass.) equipped with Rat Whole Body Scan software for lean and fat body mass determination. The rats were necropsied, then autopsied and blood was obtained by cardiac puncture. The distal femoral metaphysis and femoral shafts from each rat were analyzed by peripheral quantitative computerized tomography (pQCT), and volumetric total, trabecular and cortical bone mineral content and density were determined.
Peripheral Quantitative Computerized Tomography (pQCT) Analysis: Excised femurs were scanned by a pQCT X-ray machine (Stratec XCT Research M, Norland Medical Systems, Fort Atkinson, Wis.) with software version 5.40. A 1 millimeter (mm) thick cross section of the femur metaphysis was taken at 5.0 mm ([…], a primary cancellous bone site) and 13 mm (femoral shafts, a cortical bone site) proximal from the distal end with a voxel size of 0.10 mm. Cortical bone was defined and analyzed using contour mode 2 and cortical mode 4. An outer threshold setting of 340 mg/cm^3 was used to distinguish the cortical shell from soft tissue and an inner threshold of 529 mg/cm^3 to distinguish cortical bone along the endocortical surface. Trabecular bone was determined using peel mode 4 with a threshold of 655 mg/cm^3 to distinguish (sub)cortical from cancellous bone. An additional concentric peel of 1% of the defined cancellous bone was used to ensure that (sub)cortical bone was eliminated from the analysis. Volumetric content, density, and area were determined for both trabecular and cortical bone (Jamsa T. et al., Bone 23:155-161, 1998; Ke, H. Z. et al., Journal of Bone and Mineral Research, 16:765-773, 2001). Using the above setting, it was determined that the ex vivo precision of volumetric content, density and area of total bone, trabecular, and cortical regions ranged from 0.99% to 3.49% with repositioning.
The preceding protocol was carried out using the compound of Example 1 as the test compound. The vehicle employed in experimental groups II-IV was 100% sesame oil. The rats in groups II-IV were dosed s.c. twice a week (on Tuesday and Friday) with 0.3 ml and 0.4 ml. This dosing provided an average daily dose of 10 mg/kg/day of the compound of Example 1 for experimental group IV.
The values provided in Table 3 are the mean values±the standard error measurement. In Table 3 and the experimental protocol the following abbreviations or symbols had the following definitions. DFM: distal femoral metaphysis; FS: femoral shafts; g: grams; mg/cm^3: milligrams per cubic centimeter; mg/mm: milligrams per millimeter; a: p<0.05 vs. Baseline; b: p<0.05 vs. Sham; c: p<0.05 vs. OVX; mg/kg/day: milligrams per kilogram of body weight per day; and ml: milliliter.

[1] = 10 mg/kg/day s.c. twice a week, DXA, mean ± SEM
[2] = 10 mg/kg/day s.c., distal femoral metaphysis, pQCT, mean ± SEM
[3] = 10 mg/kg/day s.c., femoral shafts, pQCT, mean ± SEM
[4] = 10 mg/kg/day, compared to OVX rats administered vehicle

`CC[C@H]1CCCCN1c1ccc(C#N)c(C(F)(F)F)c1` [Example 1, 4-(2-(S)-Ethyl-piperidin-1-yl)-2-trifluoromethyl-benzonitrile] was tested, and the “Body Weight” value (10 mg/kg/day s.c. twice a week in sesame oil, mean ± SEM) was 459 ± 10.7^b,c g, the “Fat Body Mass” value [1] was 121.7 ± 7.9^c g and the “lean body mass” value [1] was 319.0 ± 7.7^c g. For the same compound, the “Total Density of DFM” value [2] was 602.2 ± 12.3^b mg/cm^3, the “Trabecular Density of DFM” value [2] was 310.4 ± 0.16 mg/mL and the “Cortical Content of FS” value [3] was 11.8 ± 0.15^c mg/mm. The “Total Content of FS” value [3] was 11.9 ± 0.16^c mg/mm, the “effect on body weight” value [4] was “negligible effect” and the “effect on fat body mass” value [4] was “significantly decreased”. The “effect on lean body mass” value [4] was “significantly increased”.
